Source: patent US20240408082A1, “METHODS FOR TREATING CANCERS AND TUMORS” (BEYONDSPRING PHARMACEUTICALS, INC., priority 2021, published 2024)

Test system: soft tissue sarcoma
Test: 3D clonogenic assay, Example 1, soft tissue sarcoma
Assay type: cell-based
Conditions: n=10 models
Method: In the present study, plinabulin was characterized for its ability to inhibit anchorage independent growth and ex vivo colony formation of tumor cells in semi-solid medium. The compound was investigated in 87 out of 93 originally planned tumor xenografts representing all major cancer types using a 3D clonogenic assay in a 96-well format with colony count based on image analysis as read-out. By using this assay, the investigational compound was assessed for the ability to inhibit anchorage independent growth and ex vivo colony formation of tumor cells in semi-solid medium.
A master stock solution of plinabulin was prepared by dissolving the compound in DMSO at a concentration of 9.9 mM. Working stock solutions were prepared by diluting the master stock solution with DMSO to a concentration of 0.99 mM (330-fold the highest test concentration). Small aliquots of the master and working stock were stored at −20° C. […]
Plinabulin was investigated in 87 PDX models representing a number of cancer types. […] The percentage of viable cells was determined in a Neubauer-hemocytometer using trypan blue exclusion. […]
The clonogenic assay was carried out in a 96 well plate format using ultra low attachment plates. […] Cultures were incubated at 37° C. and 7.5% CO2 in a humidified atmosphere 13 days in total and monitored closely for colony growth using an inverted microscope. […]

In the case of CC(C)(C)c1[nH]cnc1/C=c1\[nH]c(=O)/c(=C/c2ccccc2)[nH]c1=O [plinabulin, (3Z,6Z)-3-Benzylidene-6-{[5-(2-methyl-2-propanyl)-1H-imidazol-4-yl]methylene}-2,5-piperazinedione], the “geom. mean absolute IC70” value is reported as 57 nM.
